Measurements from ChEMBL document CHEMBL2385007, “Synthesis and biological evaluation of prodrugs of 2-fluoro-2-deoxyribose-1-phosphate and 2,2-difluoro-2-deoxyribose-1-phosphate” (Bioorg Med Chem Lett, 2013).

Legend:
Human alphaherpesvirus 3 [1] = test: Antiviral activity against Varicellla-zoster virus Oka infected in HEL cells assessed as inhibition of virus-induced cytopathicity; type: functional, cell-based; settings: Human alphaherpesvirus 3, strain Oka vaccine
Human alphaherpesvirus 1 [2] = test: Antiviral activity against thymidine kinase-deficient ACV-resistant HSV-1 KOS infected in HEL cells assessed as inhibition of virus-induced cytopathicity; type: functional, organism-based; settings: Human alphaherpesvirus 1, KOS
Human alphaherpesvirus 3 [3] = test: Antiviral activity against Varicellla-zoster virus 07-1 infected in HEL cells assessed as inhibition of virus-induced cytopathicity; type: functional, organism-based; settings: Human alphaherpesvirus 3, 07-1, HEL
Felid alphaherpesvirus 1 = test: Antiviral activity against Feline herpesvirus in cat CrFK cells assessed as plaque formation; type: functional, organism-based; settings: Felid alphaherpesvirus 1, CRFK
[4] = system: Human immunodeficiency virus 2; test: Antiviral activity against HIV-2 ROD infected in human CEM cells assessed as HIV-induced host giant cell formation after 4 days by microscopic analysis; type: functional, organism-based; settings: Human immunodeficiency virus 2, ISOLATE ROD, CCRF-CEM, 96 h
L1210 = test: Cytotoxicity against mouse L1210 cells; type: cell-based
[5] = Cytotoxicity against cat CRFK cells; type: cell-based, Felis catus
Feline coronavirus = test: Antiviral activity against Feline coronavirus in cat CrFK cells assessed as plaque formation; type: functional, organism-based; settings: Alphacoronavirus 1, CRFK
Cytomegalovirus = test: Antiviral activity against Cytomegalovirus Davis infected in HEL cells assessed as inhibition of virus-induced cytopathicity; type: functional, organism-based; settings: Human betaherpesvirus 5, Davis
[6] = Cytotoxicity against human HEL cells; type: cell-based
Human alphaherpesvirus 1 [7] = test: Antiviral activity against HSV-1 KOS infected in HEL cells assessed as inhibition of virus-induced cytopathicity; type: functional, organism-based; settings: Human alphaherpesvirus 1, KOS
Human betaherpesvirus 5 = test: Antiviral activity against Cytomegalovirus AD-169 infected in HEL cells assessed as inhibition of virus-induced cytopathicity; type: functional, organism-based; settings: Human betaherpesvirus 5, AD169, HEL
[8] = system: Human immunodeficiency virus 1; test: Antiviral activity against HIV-1 3B infected in human CEM cells assessed as HIV-induced host giant cell formation after 4 days by microscopic analysis; type: functional, organism-based; settings: Human immunodeficiency virus 1, 3B, CCRF-CEM, 96 h
CCRF-CEM = test: Cytotoxicity against human CEM cells; type: cell-based
Human alphaherpesvirus 2 = test: Antiviral activity against HSV-2 G infected in HEL cells assessed as inhibition of virus-induced cytopathicity; type: functional, organism-based; settings: Human alphaherpesvirus 2, strain G
[9] = system: Vesicular stomatitis virus; test: Antiviral activity against Vesicular somatitis virus infected in HEL cells assessed as inhibition of virus-induced cytopathicity; type: functional, organism-based
Vaccinia virus = test: Antiviral activity against Vaccinia virus Lederle infected in HEL cells assessed as inhibition of virus-induced cytopathicity; type: functional, organism-based; settings: Orthopoxvirus vaccinia

## C[C@H](NP(=O)(Oc1cccc2ccccc12)O[C@H]1O[C@H](CO)[C@@H](O)C1(F)F)C(=O)OCC(C)(C)C (mixture of isomers)
Human alphaherpesvirus 3 [1]
  EC50: > 20 µM
Human alphaherpesvirus 1 [2]
  EC50: > 20 µM
Human alphaherpesvirus 3 [3]
  EC50: > 20 µM
Felid alphaherpesvirus 1
  EC50: > 20 µM
[4]
  EC50: > 50 µM
L1210
  IC50: > 30 µM
[5]
  CC50: > 100 µM
Feline coronavirus
  EC50: > 20 µM
Cytomegalovirus
  EC50: > 20 µM
[6]
  MCC: ≥ 100 µM
Human alphaherpesvirus 1 [7]
  EC50: > 20 µM
Human betaherpesvirus 5
  EC50: > 20 µM
[8]
  EC50: > 50 µM
CCRF-CEM
  IC50: > 30 µM
Human alphaherpesvirus 2
  EC50: > 20 µM
[9]
  EC50: > 20 µM
Vaccinia virus
  EC50: > 20 µM

## COC(=O)[C@H](C)NP(=O)(Oc1cccc2ccccc12)O[C@H]1O[C@H](CO)[C@@H](O)C1(F)F (mixture of isomers)
Human alphaherpesvirus 3 [1]
  EC50: > 20 µM
Human alphaherpesvirus 1 [2]
  EC50: > 20 µM
Human alphaherpesvirus 3 [3]
  EC50: > 20 µM
Felid alphaherpesvirus 1
  EC50: > 20 µM
[4]
  EC50: > 50 µM
L1210
  IC50: > 30 µM
[5]
  CC50: > 100 µM
Feline coronavirus
  EC50: > 20 µM
Cytomegalovirus
  EC50: > 20 µM
[6]
  MCC: ≥ 100 µM
Human alphaherpesvirus 1 [7]
  EC50: > 20 µM
Human betaherpesvirus 5
  EC50: > 20 µM
[8]
  EC50: > 50 µM
CCRF-CEM
  IC50: > 30 µM
Human alphaherpesvirus 2
  EC50: > 20 µM
[9]
  EC50: > 20 µM
Vaccinia virus
  EC50: > 20 µM

## C[C@H](NP(=O)(Oc1ccccc1)O[C@@H]1O[C@H](CO)[C@@H](O)C1(F)F)C(=O)OCC(C)(C)C (mixture of isomers)
Human alphaherpesvirus 3 [1]
  EC50: > 20 µM
Human alphaherpesvirus 1 [2]
  EC50: > 20 µM
Human alphaherpesvirus 3 [3]
  EC50: > 20 µM
Felid alphaherpesvirus 1
  EC50: > 20 µM
[4]
  EC50: > 250 µM
L1210
  IC50: > 30 µM
[5]
  CC50: > 100 µM
Feline coronavirus
  EC50: > 20 µM
Cytomegalovirus
  EC50: > 20 µM
[6]
  MCC: ≥ 100 µM
Human alphaherpesvirus 1 [7]
  EC50: > 20 µM
Human betaherpesvirus 5
  EC50: > 20 µM
[8]
  EC50: > 250 µM
CCRF-CEM
  IC50: > 30 µM
Human alphaherpesvirus 2
  EC50: > 20 µM
[9]
  EC50: > 20 µM
Vaccinia virus
  EC50: > 20 µM

## COC(=O)[C@H](C)NP(=O)(Oc1ccccc1)O[C@@H]1O[C@H](CO)[C@@H](O)C1(F)F (mixture of isomers)
Human alphaherpesvirus 3 [1]
  EC50: > 20 µM
Human alphaherpesvirus 1 [2]
  EC50: > 20 µM
Human alphaherpesvirus 3 [3]
  EC50: > 20 µM
Felid alphaherpesvirus 1
  EC50: > 20 µM
[4]
  EC50: > 250 µM
L1210
  IC50: > 30 µM
[5]
  CC50: > 100 µM
Feline coronavirus
  EC50: > 20 µM
Cytomegalovirus
  EC50: > 20 µM
[6]
  MCC: ≥ 100 µM
Human alphaherpesvirus 1 [7]
  EC50: > 20 µM
Human betaherpesvirus 5
  EC50: > 20 µM
[8]
  EC50: > 250 µM
CCRF-CEM
  IC50: > 30 µM
Human alphaherpesvirus 2
  EC50: > 20 µM
[9]
  EC50: > 20 µM
Vaccinia virus
  EC50: > 20 µM

## COC(=O)[C@@H](NP(=O)(Oc1ccccc1)O[C@@H]1O[C@H](CO)[C@@H](O)C1(F)F)C(C)C (mixture of isomers)
Human alphaherpesvirus 3 [1]
  EC50: > 20 µM
Human alphaherpesvirus 1 [2]
  EC50: > 20 µM
Human alphaherpesvirus 3 [3]
  EC50: > 20 µM
Felid alphaherpesvirus 1
  EC50: > 20 µM
[4]
  EC50: > 250 µM
L1210
  IC50: > 30 µM
[5]
  CC50: > 100 µM
Feline coronavirus
  EC50: > 20 µM
Cytomegalovirus
  EC50: > 20 µM
[6]
  MCC: ≥ 100 µM
Human alphaherpesvirus 1 [7]
  EC50: > 20 µM
Human betaherpesvirus 5
  EC50: > 20 µM
[8]
  EC50: > 250 µM
CCRF-CEM
  IC50: > 30 µM
Human alphaherpesvirus 2
  EC50: > 20 µM
[9]
  EC50: > 20 µM
Vaccinia virus
  EC50: > 20 µM

## COC(=O)[C@@H](NP(=O)(Oc1cccc2ccccc12)O[C@@H]1O[C@H](CO)[C@@H](O)C1(F)F)C(C)C (mixture of isomers)
Human alphaherpesvirus 3 [1]
  EC50: > 20 µM
Human alphaherpesvirus 1 [2]
  EC50: > 20 µM
Human alphaherpesvirus 3 [3]
  EC50: > 20 µM
Felid alphaherpesvirus 1
  EC50: > 20 µM
[4]
  EC50: > 50 µM
L1210
  IC50: > 30 µM
[5]
  CC50: > 100 µM
Feline coronavirus
  EC50: > 20 µM
Cytomegalovirus
  EC50: > 20 µM
[6]
  MCC: ≥ 100 µM
Human alphaherpesvirus 1 [7]
  EC50: > 20 µM
Human betaherpesvirus 5
  EC50: > 20 µM
[8]
  EC50: > 50 µM
CCRF-CEM
  IC50: > 30 µM
Human alphaherpesvirus 2
  EC50: > 20 µM
[9]
  EC50: > 20 µM
Vaccinia virus
  EC50: > 20 µM

## C[C@H](NP(=O)(Oc1cccc2ccccc12)O[C@@H]1O[C@H](CO)[C@@H](O)C1(F)F)C(=O)OCC(C)(C)C (mixture of isomers)
Human alphaherpesvirus 3 [1]
  EC50: > 20 µM
Human alphaherpesvirus 1 [2]
  EC50: > 20 µM
Human alphaherpesvirus 3 [3]
  EC50: > 20 µM
Felid alphaherpesvirus 1
  EC50: > 20 µM
[4]
  EC50: > 50 µM
L1210
  IC50: > 30 µM
[5]
  CC50: > 100 µM
Feline coronavirus
  EC50: > 20 µM
Cytomegalovirus
  EC50: > 20 µM
[6]
  MCC: ≥ 100 µM
Human alphaherpesvirus 1 [7]
  EC50: > 20 µM
Human betaherpesvirus 5
  EC50: > 20 µM
[8]
  EC50: > 50 µM
CCRF-CEM
  IC50: > 30 µM
Human alphaherpesvirus 2
  EC50: > 20 µM
[9]
  EC50: > 20 µM
Vaccinia virus
  EC50: > 20 µM

## COC(=O)[C@H](C)NP(=O)(Oc1cccc2ccccc12)O[C@@H]1O[C@H](CO)[C@@H](O)C1(F)F (mixture of isomers)
Human alphaherpesvirus 3 [1]
  EC50: > 20 µM
Human alphaherpesvirus 1 [2]
  EC50: > 20 µM
Human alphaherpesvirus 3 [3]
  EC50: > 20 µM
Felid alphaherpesvirus 1
  EC50: > 20 µM
[4]
  EC50: > 50 µM
L1210
  IC50: > 30 µM
[5]
  CC50: > 100 µM
Feline coronavirus
  EC50: > 20 µM
Cytomegalovirus
  EC50: > 20 µM
[6]
  MCC: ≥ 100 µM
Human alphaherpesvirus 1 [7]
  EC50: > 20 µM
Human betaherpesvirus 5
  EC50: > 20 µM
[8]
  EC50: > 50 µM
CCRF-CEM
  IC50: > 30 µM
Human alphaherpesvirus 2
  EC50: > 20 µM
[9]
  EC50: > 20 µM
Vaccinia virus
  EC50: > 20 µM
